The text below walks through data of US7652037B2, “Methods of lowering lipid levels in a mammal” (City Of Hope, priority 2003, dated 2010).

The experiment in a line: Superoxide production, methylglyoxal with N-α-acetyl-lysine, WST-1 assay. The procedure: The superoxide radical scavenging activity of the compounds was evaluated using the WST-1 method described in Ukeda et al., Anal. Sci. 18:1151-1154, 2002. Briefly, methylglyoxal, was incubated with or without N-α-acetyl-lysine in 0.05 M chelex-treated sodium phosphate buffer, pH 7.4, in the presence of various concentrations of the inhibitor compounds. The production of superoxide was monitored spectrophotometrically at 438 nm, and compared with superoxide dismutase and Tiron, two known superoxide radical scavengers.

With `CC(Oc1cccc2cccnc12)C(=O)O` (stereo not shown) [LR-74, 2-(8-quinolinoxy) propionic acid], the “effect on superoxide production” value is recorded as “little or no effect”.
